Data reported in patent publication US20200078290A1, “Cosmetic Composition Comprising Extract Of Medicinal Herbs As Active Ingredient” (LG Household & Health Care Ltd., priority 2016, published 2020).

Legend:
RAW264.7 cell line = assay: Inhibition of NO production in LPS-stimulated RAW264.7 cells (GRIESS method); type: cell-based, mice; conditions: positive control, 10 ppm, RAW264.7, LPS
Procedure: In order to confirm the anti-inflammatory effect and the skin trouble-improving effect of the seven extracts obtained in Preparation Example 1, an experiment on the inhibition of nitrogen monoxide (NO) formation was conducted by the GRIESS method using RAW264.7 cell line (ATCC number: CRL-2278).
Specifically, RAW264.7 cells, which were macrophages of mice, were subcultured several times, and the cultured cells were put into a 24-well plate at a density of 3×10^5 […], and cultured for 24 hours. Subsequently, the cells were replaced with cell culture media containing the above-mentioned 7 kinds of extracts diluted to concentrations of […]. […] 100 μL of the supernatant was collected and transferred to a 96-well plate, and 100 μL of GRIESS solution was added thereto and reacted at room temperature for 10 minutes, and then the absorbance at 540 nm was measured to determine the NO inhibitory effect of the extracts. The NO production inhibition rate (%) was calculated using the following Calculation Equation 2, and the results are shown in Table 6. The experiments were each carried out three times, and the results are expressed as an average value.
Inhibition Rate of NO Production (%)={(Absorbance of negative control−Absorbance of each extract)/Absorbance of negative control}×100 [Calculation Equation 2]

[1] = system: human-derived fibroblasts; assay: Promotion of type 1 collagen synthesis in human fibroblasts (PICP EIA kit); type: cell-based; conditions: positive control, 52.85 ppm
Procedure: Seven kinds of extracts obtained in Preparation Example 1 were added to culture media of human-derived fibroblasts in order to confirm the effect of promoting type I collagen synthesis at the cellular level. The synthesized collagen was measured and quantitated using a PICP EIA kit (Procollagen Type I C-Peptide Enzyme Immuno Assay Kit). In order to measure the amount of synthesized collagen, the extracts of Examples 1 to 7 were added to the culture media (DMEM medium) of the fibroblasts at final concentrations of 1,000 ppm and 10,000 ppm, and cultured for 48 hours. The culture broth was collected and the degree of type 1 collagen synthesis was measured with a PICP EIA kit at 450 nm using a spectrophotometer. For the comparison of the effects, the degree of collagen synthesis was measured in the same manner for the culture medium of the fibroblasts not treated with the extract (negative control) and the culture medium (positive control) in which vitamin C was added to a final concentration of 52.85 ppm. The rate of increase in collagen production was calculated as a ratio of collagen production relative to negative control, and the results are shown in Table 3 below. The experiments were conducted four times and the results are expressed as an average value.

Structure (SMILES): CNC(=N)NCCC[C@H](N)C(=O)O [L-NMMA, L-NG-monomethylarginine]
- Inhibition Rate of NO Production (RAW264.7 cell line): 41.0%

Structure (SMILES): O=C1O[C@H]([C@@H](O)CO)C(O)=C1O [Vitamin C, vitamin C]
- Increased rate (collagen production relative to negative control) [1]: 64.3%
- Production amount of type 1 collagen ([1]; average of 4): 246.8 ng/mL
